Entries after “also recorded” stand apart in the source; their conditions may differ.

A short description of assay [1]: Tests of AII fragments for effectiveness (test not described). Particulars: test not specified.
A further assay relates to dendritic cells. Briefly: Effect of angiotensin peptides on dendritic cell proliferation (cells per well by phase contrast microscopy). Particulars: cytokine(s) added to the cultures alone. The format is cell-based, C57B1/6 mice. An excerpt:
Isolation of Dendritic Cells from Mice Treated with flt3 Ligand: Spleens were enriched in vivo with dendritic cells by stimulation with flt3 ligand (Marakovsky et al, 1996). C57B1/6 mice were subcutaneously injected with 4×10^6 flt3 ligand-secreting B16 melanoma cells prepared by transfection of murine flt3 ligand cDNA with the retroviral vector MFG. Spleen cells were harvested after the tumors reached 2-3 cm in diameter, at which time the spleens were 5-10 fold enlarged over those of untreated mice.
The spleens were harvested and the cells were dispersed through sterile screens. A single cell suspension of whole splenocytes was resuspended in a high-density BSA solution (1 ml/spleen) containing 10.6 g BSA, 18.6 ml PBS, 2.9 ml 1 N NaOH, and 6.5 ml water. After overlaying 2 ml of ice-cold RPMI, the splenocyte/BSA solution was centrifuged for 15 minutes at 9500 g. About 5×10^7 dendritic cells/spleen were recovered from the interface and resuspended in RPMI. […]
Culture of Dendritic Cells: Twenty four hours after isolation, these cells were counted and placed in culture in RPMI 1640 supplemented with 10% fetal calf serum, 2 mM 1 glutamine, 1 mM sodium pyruvate, 50 μM mercaptoethanol, 100 U/ml penicillin and 100 μg/ml streptomycin at a concentration of 1×10^3 cells/well of a 96 well plate. One third of the wells were counted at random to ensure even distribution of the cells to the wells. […]

His-Pro-Phe (HPF) [AII(6-8)]: the effectiveness result in assay [1] is given as “not to be effective”. On the same count and under the same terms, for Tyr-Ile-His-Pro-Phe (YIHPF) [AII(4-8)] the value was “not to be effective; also recorded: ineffective”.

B1: GM-CSF: murine recombinant granulocyte macrophage-colony stimulating factor, 50 ng/ml (protein, UniProt P01587 18-141, looked up)
Granulocyte-macrophage …: APTRSPITVTRPWKHVEAIKEALNLLDDMPVTLNEEVEVVSNEFSFKKLTCVQTRLKIFEQGLRGNFTKLKGALNMTASYYQTYCPPTPETDCETQVTTYADFIDSLKTFLTDIPFECKKPGQK
Consider B1, for which, in the assay with dendritic cells, the “number of cells per well / cellular proliferation, cytokine without angiotensin peptide” value is listed as “did not increase cellular proliferation”.

B2: IL-6: murine recombinant Interleukin 6 (IL-6), 25 ng/ml (protein, UniProt P08505 25-211, looked up)
Interleukin-6: FPTSQVRRGDFTEDTTPNRPVYTTSQVGGLITHVLWEIVEMRKELCNGNSDCMNNDDALAENNLKLPEIQRNDGCYQTGYNQEICLLKISSGLLEYHSYLEYMKNNLKDNKKDKARVLQRDTETLIHIFNQEVKDLHKIVLPTPISNALLTDKLESQKEWLRTKTIQFILKSLEEFLKVTLRSTRQT
For B2, the “number of cells per well / cellular proliferation, cytokine without angiotensin peptide” value with dendritic cells was “did not affect the number of cells per well”.

The values are drawn from patent US20020165141A1, “Methods for promoting dendritic cell proliferation or differentiation” (priority 2000, published 2002).
